Values quoted from earlier work, collected in patent publication US10017479B2, “Process to make non nucleosidal reverse transcriptase inhibitors (NNRTI) for the treatment of HIV” (priority 2013, dated 2018).

Experiments:
[1] = test system: wild type strains of HIV-1

## O=C(CSc1nnnn1-c1cccc2ccccc12)Nc1ccccc1[N+](=O)[O-] [compound 3, 2-((1-(naphthalen-1-yl)-1H-tetrazol-5-yl)thio)-N-(2-nitrophenyl)actetamid-e]
Mutated strains of HIV-1
  activity against the mutated strains of HIV-1: nanomolar activity
[1]
  activity against the wild type strains of HIV-1: nanomolar activity
